The subject of data set [1] is cholesterol. Particulars: animal models; cited from earlier work.
The test system of data set [2] is cholesterol. Particulars: in vivo; cited from earlier work.
Data set [3] is described as follows: Ingestion of HCA by persons, serum levels and appetite (controlled trials). The class given is in vivo. The text has this:
(§1) It has been shown that ingestion of compositions incorporating a salt of (−) hydroxycitric acid (HCA) leads to increased levels of serotonin. Serotonin levels, like ghrelin levels, also are related to NPY, and an increase in serotonin levels is a well-established mechanism of appetite suppression. Ingestion of HCA by persons and rodents results in a decrease in serum leptin and ghrelin levels and an increase in serum serotonin levels.

A short description of data set [4]: Ingestion of HCA by rodents, serum levels. The class given is in vivo.
Excerpt: as §1

In data set [5] the test system is DNA. Particulars: cited from earlier work.

Take Gymnemic acid: in data set [1], the cholesterol result was “lower cholesterol”.
For `O=C(O[C@@H]1Cc2c(O)cc(O)cc2O[C@@H]1c1cc(O)c(O)c(O)c1)c1cc(O)c(O)c(O)c1` [EGCG, epigallocatechin gallate], the cholesterol levels entry in data set [2] is “reduce cholesterol levels”.
For `O=C(O)CC(O)(C(=O)O)C(O)C(=O)O` (single isomer, unassigned; (-)) [HCA, (−)hydroxycitric acid], the appetite result in data set [3] (amount of food remaining on plates, controlled trials) is listed as “time-dependent decrease in appetite”. In data set [3] (ingestion of HCA), the serum ghrelin levels entry is on record as “decrease”, the serum leptin levels result was “decrease” and the serum serotonin levels result is “increase”. Besides, in data set [4], the serum ghrelin levels entry is recorded as “decrease”, the serum leptin levels entry is reported as “decrease” and the serum serotonin levels entry is reported as “increase”.
Turning to chromium picolinate, in data set [5], the safety and toxicity entry is “damage DNA and be mutagenic”.

The record behind these values is US20040186181A1, “Method and composition for decreasing ghrelin levels” (InterHealth Nutraceuticals, Incorporated, priority 2003, published 2004).
